Experimental data published in ChEMBL document CHEMBL5223143, “Identification of novel benzimidazole derivatives as highly potent AMPK activators with anti-diabetic profiles” (Bioorg Med Chem Lett, 2023).
Values belong to the molecule of their own block, whether it stands above or below them. Activity calls are given as the source filed them. The rule behind the calls is not given here.

How the values were obtained:
L6 = assay: Activation of AMPK alpha2beta2gamma1 in rat L6 cells assessed as increase in AMPK phosphorylation by ELISA assay; format: cell-based; conditions: filed as activator
[1] = target: AMPK alpha2/beta2/gamma1 (Homo sapiens) (UniProt P54646+O43741+P54619); assay: Activation of human recombinant AMPK A2/B2/G1 assessed as increase in AMPK phosphorylation using FL-peptide as substrate incubated for 120 mins by EZ reader method; format: protein-complex assay; conditions: filed as activator
[2] = […] in rat muscle tissue at 0.5 mg/kg,iv; format: ADME, organism-based
Cytochrome P450 1A2 = target: T1, Cytochrome P450 1A2 (Homo sapiens, UniProt P05177); assay: Inhibition of CYP1A2 in human liver microsomes using 7-ethoxyresorufin as substrate; format: ADME, Microsome
T1 sequence (P05177 whole entry): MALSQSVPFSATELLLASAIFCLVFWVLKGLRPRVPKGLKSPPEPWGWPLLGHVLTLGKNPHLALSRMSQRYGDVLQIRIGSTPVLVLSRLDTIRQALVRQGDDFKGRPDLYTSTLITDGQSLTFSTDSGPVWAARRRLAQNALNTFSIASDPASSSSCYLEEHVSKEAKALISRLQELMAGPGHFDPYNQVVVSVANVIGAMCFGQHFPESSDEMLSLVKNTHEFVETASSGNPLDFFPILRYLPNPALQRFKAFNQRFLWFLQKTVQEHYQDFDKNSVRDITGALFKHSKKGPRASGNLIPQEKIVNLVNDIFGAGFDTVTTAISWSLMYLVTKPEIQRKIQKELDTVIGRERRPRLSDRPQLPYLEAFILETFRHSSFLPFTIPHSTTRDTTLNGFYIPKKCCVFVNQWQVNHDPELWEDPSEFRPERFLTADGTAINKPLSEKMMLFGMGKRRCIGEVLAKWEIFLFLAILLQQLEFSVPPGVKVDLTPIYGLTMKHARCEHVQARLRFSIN

Cytochrome P450 2D6 = Cytochrome P450 2D6 (Homo sapiens, UniProt P10635); assay: Inhibition of CYP2D6 in human liver microsomes using dextromethorphan as substrate; format: ADME, Microsome
Mus musculus [3] = assay: Antidiabetic activity against diabetic KKAy mouse model assessed as acute glucose lowering effect at 0.3 to 3 mg/kg,po bid; format: functional, organism-based; conditions: dose 0.3-3 mg/kg
Mus musculus [4] = assay: Antidiabetic activity against diabetic KKAy mouse model assessed as increase in ACC phosphorylation in skeletal muscle at 0.3 to 3 mg/kg,po bid; format: functional, organism-based; conditions: dose 0.3-3 mg/kg
[5] = […] in rat liver at 0.5 mg/kg,iv; format: ADME, organism-based
Cytochrome P450 2C9 = Cytochrome P450 2C9 (Homo sapiens, UniProt P11712); assay: Inhibition of CYP2C9 in human liver microsomes using tolbutamide as substrate; format: ADME, Microsome
Cytochrome P450 3A4 = Cytochrome P450 3A4 (Homo sapiens, UniProt P08684); assay: Inhibition of CYP3A4 in human liver microsomes using terfenedine as substrate; format: ADME, Microsome
Cytochrome P450 2C19 = Cytochrome P450 2C19 (Homo sapiens, UniProt P33261); assay: Inhibition of CYP2C19 in human liver microsomes using mephenytoin as substrate; format: ADME, Microsome
[6] = Metabolic stability in human liver microsomes assessed as compound remaining incubated for 30 mins; format: ADME, Microsome; conditions: read-out: Stability
[7] = Protein binding in serum (unknown origin) assessed as free fraction by equilibrium dialysis method; format: ADME, cell-free
Mus musculus [8] = assay: Antidiabetic activity against diabetic KKAy mouse model assessed as decrease in plasma glucose level at 0.3 to 3 mg/kg,po bid observed upto 21 days; format: functional, organism-based; conditions: dose 0.3-3 mg/kg, time <= 21.0 day
[9] = AUC in rat at 1 mg/kg,po; format: ADME, organism-based; design: dose 1 mg/kg, route po; conditions: in vivo
Mus musculus [10] = assay: Antidiabetic activity against diabetic KKAy mouse model assessed as decrease in HbA1c level at 0.3 to 3 mg/kg,po bid observed upto 21 days; format: functional, organism-based; conditions: dose 0.3-3 mg/kg, time <= 21.0 day
[11] = Total clearance in rat at 0.5 mg/kg,iv; format: ADME, organism-based; conditions: in vivo
[12] = Cmax in rat at 0.5 mg/kg,iv; format: ADME, organism-based; design: dose 0.5 mg/kg, route iv; conditions: in vivo
[13] = Metabolic stability in rat liver microsomes assessed as compound remaining incubated for 30 mins; format: ADME, Microsome; conditions: read-out: Stability

AMPK alpha2/beta2/gamma1 (Homo sapiens), sequence (O43741 whole entry, looked up): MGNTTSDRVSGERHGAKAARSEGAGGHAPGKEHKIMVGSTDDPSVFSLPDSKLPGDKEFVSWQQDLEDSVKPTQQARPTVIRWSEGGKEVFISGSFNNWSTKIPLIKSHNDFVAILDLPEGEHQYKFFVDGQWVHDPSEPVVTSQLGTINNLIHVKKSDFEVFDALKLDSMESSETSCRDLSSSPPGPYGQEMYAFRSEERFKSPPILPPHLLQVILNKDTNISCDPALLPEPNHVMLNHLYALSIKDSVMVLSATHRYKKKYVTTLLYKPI
AMPK alpha2/beta2/gamma1 (Homo sapiens), sequence (P54619 whole entry, looked up): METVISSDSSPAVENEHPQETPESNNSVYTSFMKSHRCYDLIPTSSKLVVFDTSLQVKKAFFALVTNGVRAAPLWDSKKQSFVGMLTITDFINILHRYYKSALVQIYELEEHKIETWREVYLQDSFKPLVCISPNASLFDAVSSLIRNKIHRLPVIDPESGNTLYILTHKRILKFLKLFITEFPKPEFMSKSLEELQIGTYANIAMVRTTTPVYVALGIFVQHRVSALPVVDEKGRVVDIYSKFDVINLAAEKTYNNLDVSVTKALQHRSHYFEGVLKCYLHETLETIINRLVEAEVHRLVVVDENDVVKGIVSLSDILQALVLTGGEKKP
AMPK alpha2/beta2/gamma1 (Homo sapiens), sequence (P54646 whole entry, looked up): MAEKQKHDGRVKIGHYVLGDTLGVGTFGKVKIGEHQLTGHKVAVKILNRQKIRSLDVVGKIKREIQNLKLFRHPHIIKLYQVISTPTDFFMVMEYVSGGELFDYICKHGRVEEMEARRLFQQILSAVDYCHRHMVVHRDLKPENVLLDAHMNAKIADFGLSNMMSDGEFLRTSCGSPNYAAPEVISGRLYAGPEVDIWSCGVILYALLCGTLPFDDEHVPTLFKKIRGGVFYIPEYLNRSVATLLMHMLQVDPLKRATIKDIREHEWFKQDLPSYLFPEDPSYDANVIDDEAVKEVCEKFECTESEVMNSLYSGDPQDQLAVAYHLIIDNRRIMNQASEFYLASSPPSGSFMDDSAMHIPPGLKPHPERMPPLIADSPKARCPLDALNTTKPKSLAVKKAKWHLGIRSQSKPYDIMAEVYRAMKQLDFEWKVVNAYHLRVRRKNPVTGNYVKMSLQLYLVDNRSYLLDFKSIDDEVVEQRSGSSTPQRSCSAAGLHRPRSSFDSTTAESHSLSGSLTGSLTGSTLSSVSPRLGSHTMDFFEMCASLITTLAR
Cytochrome P450 2C19, sequence (P33261 whole entry): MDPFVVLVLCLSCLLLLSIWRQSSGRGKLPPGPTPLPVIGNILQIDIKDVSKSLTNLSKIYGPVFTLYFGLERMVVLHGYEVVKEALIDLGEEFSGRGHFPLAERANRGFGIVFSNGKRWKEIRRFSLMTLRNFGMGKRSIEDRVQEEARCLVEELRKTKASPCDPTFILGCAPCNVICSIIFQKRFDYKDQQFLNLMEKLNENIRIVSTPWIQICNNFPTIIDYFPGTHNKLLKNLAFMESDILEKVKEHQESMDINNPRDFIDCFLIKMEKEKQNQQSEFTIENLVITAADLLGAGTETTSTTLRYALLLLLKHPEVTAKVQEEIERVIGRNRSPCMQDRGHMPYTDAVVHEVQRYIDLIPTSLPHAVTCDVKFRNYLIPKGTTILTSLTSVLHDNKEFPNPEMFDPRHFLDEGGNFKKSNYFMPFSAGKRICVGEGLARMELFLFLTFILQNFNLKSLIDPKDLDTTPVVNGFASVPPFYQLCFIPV
Cytochrome P450 3A4, sequence (P08684 whole entry): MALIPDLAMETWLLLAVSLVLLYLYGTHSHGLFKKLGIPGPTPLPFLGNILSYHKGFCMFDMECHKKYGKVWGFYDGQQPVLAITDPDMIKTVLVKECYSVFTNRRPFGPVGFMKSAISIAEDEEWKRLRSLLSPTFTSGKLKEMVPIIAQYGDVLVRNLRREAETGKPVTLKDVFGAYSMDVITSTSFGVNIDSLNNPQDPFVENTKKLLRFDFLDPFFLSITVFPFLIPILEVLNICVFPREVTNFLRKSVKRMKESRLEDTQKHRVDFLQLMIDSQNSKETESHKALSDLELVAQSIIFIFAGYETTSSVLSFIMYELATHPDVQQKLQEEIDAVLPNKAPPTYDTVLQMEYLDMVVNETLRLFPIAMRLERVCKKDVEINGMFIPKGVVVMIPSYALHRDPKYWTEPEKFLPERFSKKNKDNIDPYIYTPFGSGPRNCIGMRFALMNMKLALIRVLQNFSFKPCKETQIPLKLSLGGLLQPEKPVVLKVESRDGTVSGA
Cytochrome P450 2D6, sequence (P10635 whole entry): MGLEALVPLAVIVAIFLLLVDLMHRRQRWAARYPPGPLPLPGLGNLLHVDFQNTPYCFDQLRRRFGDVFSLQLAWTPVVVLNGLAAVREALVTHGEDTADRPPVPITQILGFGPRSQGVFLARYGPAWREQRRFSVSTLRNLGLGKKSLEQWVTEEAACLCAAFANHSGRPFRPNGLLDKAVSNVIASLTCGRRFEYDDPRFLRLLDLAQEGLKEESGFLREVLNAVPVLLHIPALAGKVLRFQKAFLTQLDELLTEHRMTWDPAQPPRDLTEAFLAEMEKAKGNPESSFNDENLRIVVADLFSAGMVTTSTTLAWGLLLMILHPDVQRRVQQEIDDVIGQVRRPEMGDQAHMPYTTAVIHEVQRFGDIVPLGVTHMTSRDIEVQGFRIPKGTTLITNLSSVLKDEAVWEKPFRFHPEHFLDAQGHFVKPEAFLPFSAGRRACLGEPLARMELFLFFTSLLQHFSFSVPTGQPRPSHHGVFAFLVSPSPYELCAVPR
Cytochrome P450 2C9, sequence (P11712 whole entry): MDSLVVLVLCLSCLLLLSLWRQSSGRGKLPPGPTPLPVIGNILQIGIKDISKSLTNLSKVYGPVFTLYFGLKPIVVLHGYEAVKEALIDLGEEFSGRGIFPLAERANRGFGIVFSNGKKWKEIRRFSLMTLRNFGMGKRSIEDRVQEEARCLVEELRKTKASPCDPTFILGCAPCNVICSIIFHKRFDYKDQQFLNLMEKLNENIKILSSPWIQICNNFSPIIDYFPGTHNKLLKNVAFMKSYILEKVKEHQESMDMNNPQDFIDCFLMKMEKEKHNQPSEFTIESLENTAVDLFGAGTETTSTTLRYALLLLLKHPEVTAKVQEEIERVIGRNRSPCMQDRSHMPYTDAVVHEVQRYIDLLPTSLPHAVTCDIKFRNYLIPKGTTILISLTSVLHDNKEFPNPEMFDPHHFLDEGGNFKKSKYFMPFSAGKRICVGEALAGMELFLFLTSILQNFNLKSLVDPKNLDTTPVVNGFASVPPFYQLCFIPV

EC150 [1]: 0.0047 µM
SMILES: CC(=O)Nc1cc(F)c2c(c1)CC[C@@H]2Nc1nc2nc(O[C@@H]3CO[C@H]4[C@@H]3OC[C@H]4O)[nH]c2cc1Cl
EC150 (L6): 0.584 µM

Kp [2]: 1.51
IC50 (Cytochrome P450 1A2): > 20 µM
IC50 (Cytochrome P450 2D6): > 20 µM
Kp [5]: 5.64
IC50 (Cytochrome P450 2C9): > 20 µM
IC50 (Cytochrome P450 3A4): > 20 µM
IC50 (Cytochrome P450 2C19): > 20 µM
remaining at 0.5 h [6]: 91%
fraction unbound [7]: 0.031
AUC [9]: 0.347 µg·h/mL
EC150 [1]: 0.0016 µM
clearance [11]: 0.541 L/h/kg
Cmax [12]: 0.0654 µg/mL
remaining at 0.5 h [13]: 81%
SMILES: COCCOc1cc(F)c2c(c1)CC[C@@H]2Nc1nc2nc(O[C@@H]3CO[C@H]4[C@@H]3OC[C@H]4O)[nH]c2cc1Cl
Activity (Mus musculus [3]): Active
EC150 (L6): 0.0443 µM
Activity (Mus musculus [4]): Dose-Dependent Effect
Activity (Mus musculus [8]): Active
Activity (Mus musculus [10]): Dose-Dependent Effect

EC150 [1]: 0.002 µM
SMILES: O[C@@H]1CO[C@H]2[C@@H]1OC[C@H]2Oc1nc2nc(N[C@H]3CCc4cccc(F)c43)c(Cl)cc2[nH]1
EC150 (L6): 1.06 µM

EC150 [1]: 0.0031 µM
SMILES: O[C@@H]1CO[C@H]2[C@@H]1OC[C@H]2Oc1nc2nc(N[C@H]3CCc4ccccc43)c(Cl)cc2[nH]1

EC150 [1]: 0.0044 µM
SMILES: Cn1cc(-c2cc(F)c3c(c2)CC[C@@H]3Nc2nc3nc(O[C@@H]4CO[C@H]5[C@@H]4OC[C@H]5O)[nH]c3cc2Cl)cn1
EC150 (L6): 0.0847 µM

The next lines start with the molecule.

SMILES: O[C@@H]1CO[C@H]2[C@@H]1OC[C@H]2Oc1nc2nc(NCc3ccccc3C(F)(F)F)c(Cl)cc2[nH]1
EC150 [1]: 8.9 µM

SMILES: O[C@@H]1CO[C@H]2[C@@H]1OC[C@H]2Oc1nc2nc(NCCCc3ccccc3)c(Cl)cc2[nH]1
EC150 [1]: 15 µM

SMILES: O[C@@H]1CO[C@H]2[C@@H]1OC[C@H]2Oc1nc2nc(NCc3ccccc3)c(Cl)cc2[nH]1
EC150 [1]: 0.16 µM

SMILES: CS(=O)(=O)c1ccccc1CNc1nc2nc(O[C@@H]3CO[C@H]4[C@@H]3OC[C@H]4O)[nH]c2cc1Cl
EC150 [1]: 23 µM

SMILES: O[C@@H]1CO[C@H]2[C@@H]1OC[C@H]2Oc1nc2nc(NCc3ccccc3F)c(Cl)cc2[nH]1
EC150 [1]: 0.048 µM

SMILES: CN(Cc1ccccc1)c1nc2nc(O[C@@H]3CO[C@H]4[C@@H]3OC[C@H]4O)[nH]c2cc1Cl
EC150 [1]: 4.9 µM

SMILES: OCc1ccccc1CNc1nc2nc(O[C@@H]3CO[C@H]4[C@@H]3OC[C@H]4O)[nH]c2cc1Cl
EC150 [1]: 9.5 µM
